# Molecular target: T1, hPARG (Homo sapiens, UniProt Q86W56)
# T1 construct: made in house; host or cells: E. coli
# Assay: PARG enzymatic activity assay (HTRF)
# Format: biochemical
# Conditions: C-terminal His6-tag hPARG 65 pM, biotinylated-NAD ribosylated PARP1 substrate 8 nM
# Method in brief: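 His6-tagged hPARG from E. coli (65 pM final) preincubated 60 min RT with compound (10-point 4-fold dilution), then 8 nM biotinylated NAD-ribosylated PARP1 added for 10 min RT in Tris pH 7.4 buffer with EDTA, EGTA, DTT, KCl. HTRF detection (Eu-streptavidin/anti-His XL665, 620/665 nm); IC50 from 4-parameter fit against DMSO and no-enzyme controls.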
# T1 sequence (Q86W56 whole entry): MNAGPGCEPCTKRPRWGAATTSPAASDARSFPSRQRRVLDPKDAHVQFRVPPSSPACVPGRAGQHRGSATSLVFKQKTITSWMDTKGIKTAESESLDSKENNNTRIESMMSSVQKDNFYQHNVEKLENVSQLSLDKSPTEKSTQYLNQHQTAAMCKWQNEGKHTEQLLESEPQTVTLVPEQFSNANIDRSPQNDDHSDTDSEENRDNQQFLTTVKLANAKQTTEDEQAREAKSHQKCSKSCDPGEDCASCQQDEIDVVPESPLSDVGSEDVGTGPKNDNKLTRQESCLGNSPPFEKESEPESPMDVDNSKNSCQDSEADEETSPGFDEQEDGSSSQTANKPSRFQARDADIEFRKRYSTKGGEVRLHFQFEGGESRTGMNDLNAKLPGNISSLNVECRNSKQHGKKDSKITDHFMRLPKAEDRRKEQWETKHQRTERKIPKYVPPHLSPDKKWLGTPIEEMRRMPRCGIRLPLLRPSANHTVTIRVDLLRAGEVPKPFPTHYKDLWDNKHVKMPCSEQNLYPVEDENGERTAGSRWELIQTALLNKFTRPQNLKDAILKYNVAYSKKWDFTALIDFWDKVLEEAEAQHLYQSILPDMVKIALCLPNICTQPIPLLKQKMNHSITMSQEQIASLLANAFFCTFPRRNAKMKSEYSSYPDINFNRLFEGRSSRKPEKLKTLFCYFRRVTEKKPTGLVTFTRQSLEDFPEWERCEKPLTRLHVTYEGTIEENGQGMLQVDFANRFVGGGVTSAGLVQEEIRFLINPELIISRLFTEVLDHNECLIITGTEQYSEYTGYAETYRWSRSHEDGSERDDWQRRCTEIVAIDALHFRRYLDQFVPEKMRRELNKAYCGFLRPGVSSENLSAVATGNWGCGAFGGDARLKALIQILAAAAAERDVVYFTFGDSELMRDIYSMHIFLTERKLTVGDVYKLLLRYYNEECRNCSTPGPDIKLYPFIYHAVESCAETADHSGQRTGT
row,SMILES,IC50 [nM]
1,"CN(CCCN1CCOCC1)c1ncnc2c1c1ccc(S(=O)(=O)NC3(C#N)CC3)cc1n2-c1nnc(C(F)F)s1 [Example 17, N-(1-Cyanocyclopropyl)-9-(5-(difluoromethyl)-1,3,4-thiadiazol-2-yl)-4-(methyl(3-morpholinopropyl)amino)-9H-pyrimido[4,5-b]indole-7-sulfonamide]",≤ 100
2,"CCN(CCN1CCOCC1)c1ncnc2c1c1ccc(S(=O)(=O)NC3(C#N)CC3)cc1n2-c1nnc(C(F)F)s1 [Example 18, N-(1-Cyanocyclopropyl)-9-(5-(difluoromethyl)-1,3,4-thiadiazol-2-yl)-4-(ethyl(2-morpholinoethyl)amino)-9H-pyrimido [4,5-b]indole-7-sulfonamide]",≤ 100
3,"CN(C)C(=O)N1CCN(CCOc2ncnc3c2c2ccc(S(=O)(=O)NC4(C#N)CC4)cc2n3-c2nnc(C(F)F)s2)CC1 [Example 5, 4-(2-((7-(N-(1-Cyanocyclopropyl)sulfamoyl)-9-(5-(difluoromethyl)-1,3,4-thiadiazol-2-yl)-9H-pyrimido[4,5-b]indol-4-yl)oxy)ethyl)-N,N-dimethylpiperazine-1-carboxamide]",≤ 100
4,"CN(C)c1ncnc2c1c1ccc(S(=O)(=O)NC3(C#N)CC3)cc1n2-c1nnc(C(F)F)s1 [Example 14, N-(1-Cyanocyclopropyl)-9-(5-(difluoromethyl)-1,3,4-thiadiazol-2-yl)-4-(dimethylamino)-9H-pyrimido[4,5-b]indole-7-sulfonamide]",≤ 100
5,"N#CC1(NS(=O)(=O)c2ccc3c4c(OCC(=O)N5CCOCC5)ncnc4n(-c4nnc(C(F)F)s4)c3c2)CC1 [Example 11, N-(1-Cyanocyclopropyl)-9-(5-(difluoromethyl)-1,3,4-thiadiazol-2-yl)-4-(2-morpholino-2-oxoethoxy)-9H-pyrimido[4,5-b]indole-7-sulfonamide]",≤ 100

# The next lines start with the values.
row,IC50 [nM],SMILES
1,≤ 100,"CCN(CC)[C@@H]1CCN(c2ncnc3c2c2ccc(S(=O)(=O)NC4(C#N)CC4)cc2n3-c2nnc(C(F)F)s2)C[C@@H]1OC [Example 50, N-(1-Cyanocyclopropyl)-4-((3S,4R)-4-(diethylamino)-3-methoxypiperidin-1-yl)-9-(5-(difluoromethyl)-1,3,4-thiadiazol-2-yl)-9H-pyrimido[4,5-b]indole-7-sulfonamide]"
2,≤ 100,"N#CC1(NS(=O)(=O)c2ccc3c4c(N5CCn6ccnc6C5)ncnc4n(-c4nnc(C(F)F)s4)c3c2)CC1 [Example 44, N-(1-Cyanocyclopropyl)-9-(5-(difluoromethyl)-1,3,4-thiadiazol-2-yl)-4-(5,6-dihydroimidazo[1,2-a]pyrazin-7(8H)-yl)-9H-pyrimido[4,5-b]indole-7-sulfonamide]"
3,100 to 1000,"CC(C)(O)CCc1ncnc2c1c1ccc(S(=O)(=O)NC3(C#N)CC3)cc1n2-c1nnc(C(F)F)s1 [Example 89, N-(1-Cyanocyclopropyl)-9-(5-(difluoromethyl)-1,3,4-thiadiazol-2-yl)-4-(3-hydroxy-3-methylbutyl)-9H-pyrimido[4,5-b]indole-7-sulfonamide]"
4,≤ 100,"CN(Cc1ccncc1)c1ncnc2c1c1ccc(S(=O)(=O)NC3(C#N)CC3)cc1n2-c1nnc(C(F)F)s1 [Example 21, N-(1-Cyanocyclopropyl)-9-(5-(difluoromethyl)-1,3,4-thiadiazol-2-yl)-4-(methyl(pyridin-4-ylmethyl)amino)-9H-pyrimido[4,5-b]indole-7-sulfonamide]"
5,> 1000,"Cc1nc(C)n(CCN(C)c2ncnc3c2c2ccc(S(=O)(=O)NC4(C#N)CC4)cc2n3-c2nnc(C(F)F)s2)n1 [Example 71, N-(1-Cyanocyclopropyl)-9-(5-(difluoromethyl)-1,3,4-thiadiazol-2-yl)-4-((2-(3,5-dimethyl-1H-1,2,4-triazol-1-yl)ethyl)(methyl)amino)-9H-pyrimido[4,5-b]indole-7-sulfonamide]"

# From patent publication US20260049088A1, “TRICYCLIC HETEROCYCLIC DERIVATIVES, COMPOSITIONS AND USES THEREOF” (Danatlas Pharmaceuticals Co., Ltd., priority 2023, published 2026)
